“Also recorded” adds a separate entry of the source. Read-outs that look alike come from different tables or passages of the source.
Key:
[1] = system: influenza virus A/WSN/33(H1N1); experiment: Cytopathic effect (CPE) inhibition assay, WSN virus in MDCK cells; assay type: cell-based; conditions: for EC50: H1N1|WSN, 48 h; for Viral Infectivity (%): WSN MOI=1, 48 h, lower = better inhibition; for anti-influenza virus activity: WSN, CPE
[2] = system: MDCK cells; conditions: dog, 48 h; for Cell viability(%) / Cell viability (%): 50 μM
[3] = in vitro; conditions: human
[4] = in vitro; conditions: dog
[5] = in vitro; conditions: human; remark: listed apart in the source
[6] = system: A/WSN/33 (H1N1) virus; experiment: Plaque inhibition assay; assay type: cell-based, influenza A virus; conditions: for Plaque number: 0 μM = 100
[7] = system: A/WSN/33(H1N1) virus; experiment: Time-of-addition experiment (viral NP by Western blotting); assay type: cell-based, influenza A virus
[8] = system: H1N1 pseudotype virus (A/WSN/33 (H1N1) HA/NA); experiment: microbe, parasite or virus in culture; assay type: cell-based; conditions: Influenza A virus, H1N1pp, DMSO set to zero, read-out: inhibition rate
[9] = system: H5N1 pseudotype virus (A/VietNam/1203/2004 (H5N1) HA/NA); experiment: microbe, parasite or virus in culture; assay type: cell-based; conditions: Influenza A virus, H5N1, read-out: inhibition rate
[10] = system: VSV pseudotype virus; experiment: microbe, parasite or virus in culture; assay type: cell-based; conditions: Vesicular stomatitis virus, read-out: inhibition rate
[11] = target: influenza virus (WSN strain) hemagglutinin protein (HA) (Influenza A virus, UniProt P03454); experiment: Hemagglutination inhibition (HI) assay; conditions: chicken erythrocytes
influenza virus (WSN strain) hemagglutinin protein (HA), sequence (P03454 18-342 limits assumed): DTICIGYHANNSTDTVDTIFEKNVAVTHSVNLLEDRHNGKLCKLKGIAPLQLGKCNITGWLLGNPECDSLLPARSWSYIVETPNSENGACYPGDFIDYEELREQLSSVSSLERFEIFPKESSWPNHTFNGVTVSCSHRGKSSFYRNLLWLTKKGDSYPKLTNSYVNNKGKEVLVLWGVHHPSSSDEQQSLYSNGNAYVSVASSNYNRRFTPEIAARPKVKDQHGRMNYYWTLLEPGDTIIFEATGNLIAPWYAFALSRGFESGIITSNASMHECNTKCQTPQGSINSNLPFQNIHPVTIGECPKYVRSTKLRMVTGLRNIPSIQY
influenza virus (WSN strain) hemagglutinin protein (HA), sequence (P03454 344-565 partner limits assumed): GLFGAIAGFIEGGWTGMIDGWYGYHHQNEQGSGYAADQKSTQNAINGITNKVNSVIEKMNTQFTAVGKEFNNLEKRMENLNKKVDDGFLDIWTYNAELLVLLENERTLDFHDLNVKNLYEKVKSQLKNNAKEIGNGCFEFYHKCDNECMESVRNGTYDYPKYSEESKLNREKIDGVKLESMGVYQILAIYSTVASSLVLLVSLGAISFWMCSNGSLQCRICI

[12] = system: A/Puerto Rico/8/34 (H1N1); experiment: CPE reduction assay, PR/8 (H1N1); assay type: cell-based; conditions: Influenza A virus
[13] = system: A/JiangXi-DongHu/312/2006 (H3N2); experiment: microbe, parasite or virus in culture; assay type: cell-based, influenza A virus
[14] = system: B/ShenZhen/155/2005; experiment: CPE reduction assay, B/SZ/155; assay type: cell-based; conditions: Influenza B virus, B/SZ/155, CPE
[15] = system: different influenza viruses; experiment: CPE reduction assays on different influenza viruses; assay type: cell-based, influenza A virus and influenza B virus; conditions: for inhibition effect on different influenza viruses: PR/8, LN/1109, JX/312, HN/1222, B/SZ/155
[16] = system: HIV; conditions: reported by European researchers; cited from earlier work
[17] = Cytotoxicity (CellTiter-Glo), MDCK cells; conditions: dog
[18] = PR/8 (H1N1), CPE, read-out: EC50

Row | Compound | EC50 ([1]; MDCK) [µM] | CC50 at 48 h [3] [µM] | CC50 at 48 h [4] [µM] | CC50 at 48 h [5] [µM] | Viral Infectivity (%) ([1]; Table 8, 50 μM) | anti-influenza virus activity ([1]; 50 μM) | EC50 [12, 18] [µM] | EC50 ([13]; Influenza A virus, H3N2) [µM] | EC50 [14] [µM] | inhibition effect on different influenza viruses [15] | Cell viability (%) [2] [%] | further results
1 | CC(=O)OCC1O[C@H](O[C@H]2C(COC(C)=O)O[C@H](OC(=O)[C@]34CCC(C)(C)C[C@H]3C3=CC[C@@H]5[C@@]6(C)CC[C@H](O)C(C)(C)[C@@H]6CC[C@@]5(C)[C@]3(C)CC4O)C(OC(C)=O)C2OC(C)=O)C(OC(C)=O)C(OC(C)=O)[C@@H]1OC(C)=O (stereo partly drawn) [Compound Q10, 3β,16α-dihydroxy-olean-12-en-28-oic acid-28-O-(hepta-O-acetyl-β-D-lactoside)] | > 100 | > 100 | > 100 | > 100 |  |  |  |  |  |  |  | Viral Infectivity (%) ([1]; Table 6, 50 μM): 100.6%; Cell viability(%) [2]: 98.1%
2 | CC1(C)CC[C@]2(C(=O)O[C@H]3OC(CO)[C@@H](O)C(O)C3O)C(O)C[C@]3(C)C(=CC[C@@H]4[C@@]5(C)CC[C@H](O)C(C)(C)[C@@H]5CC[C@]43C)[C@@H]2C1 (stereo partly drawn) [Compound Q9, 3β,16α-dihydroxy-olean-12-en-28-oic acid-28-O-(β-D-galactoside)] | 48.7 | > 100 | > 100 | > 100 | 21.1 | significant inhibitory effect on influenza virus; also recorded: significant inhibition activity against influenza virus | 17.5 ± 0.43 | 16.9 ± 5.38 | 36.2 ± 7.21 | various extent of inhibition effect | 100.3 | inhibition at 50 µM ([1]; MDCK, Table 9, 50 μM, protective rate against cytopathy, read-out: IAV inhibition rate (%)): 53.6 ± 6.16%; Viral Infectivity (%) ([1]; Table 6, 50 μM): 21.1%; IC50 ([6]; Influenza A virus, WSN, MDCK cells, read-out: IC50 (plaque formation reduction)): < 5 µM; Plaque number ([6]; Q9 5 μM): 42.9 ± 5.8; Plaque number ([6]; Q9 10 μM): 21.8 ± 2.5; Plaque number ([6]; Q9 25 μM): 14.1 ± 1.7; Plaque number ([6]; Q9 50 μM): 7.6 ± 2.5; Plaque number ([6]; Q9 100 μM): 0; NP level reduction compared with the DMSO control ([7]; interval 0-2 h): ~62%; NP level reduction compared with the DMSO control ([7]; interval 0-10 h): around 75%; antiviral activity ([7]; intervals 2-5, 5-8, and 8-10 h): no antiviral activity was detected; stage of viral lifecycle acted on ([7]; time-of-addition): acted on the entry step of influenza virus into cells; also recorded: effective at the early stage (0-2 h) of the viral lifecycle; inhibition at 50 µM [8]: 61.9%; inhibition at 50 µM [9]: 16.8%; inhibition at 50 µM [10]: 3.8%; effect on binding of viruses to cellular receptors [11]: interfered the binding of viruses to cellular receptors; CC50 [2]: > 200 µM; Cell viability(%) [2]: 89%
3 | CCOC(=O)C1=C[C@@H](OC(CC)CC)[C@H](NC(C)=O)[C@@H](N)C1 [OSV-P, oseltamivir phosphate, reference compound] | 45.6 | > 100 | > 100 | > 100 |  |  | > 200 | 2.06 ± 0.58 | 91.1 ± 34.5 |  |  | CC50 [2]: > 200 µM
4 | CC1(C)CC[C@@]2(C(=O)N[C@H]3OC(CO)[C@@H](O)C(O)C3O)C(C1)C1=CCC3[C@@]4(C)CC[C@H](O)C(C)(C)C4CC[C@@]3(C)[C@]1(C)C[C@H]2O (stereo partly drawn) [Compound Y2, 3β,16α-dihydroxy-olean-12-en-28-oic acid-28-N-(β-D-galactoside)] |  |  | > 100 |  | 17.5 | significant anti-influenza virus activity | 6.22 ± 0.83 |  | > 22.2 | various extent of inhibition effect | 105.0 | EC50 [13]: > 22.2 µM
5 | CC1(C)CC[C@]2(C(=O)O)CC[C@]3(C)C(=CC[C@@H]4[C@@]5(C)C[C@@H](O)[C@H](O)C(C)(C)[C@@H]5CC[C@]43C)[C@@H]2C1 [hawthorn acid] |  |  |  |  |  |  |  |  |  |  |  | inhibition rate of spread of HIV in the body [16]: up to 80%
6 | NC(=O)c1ncn([C@@H]2O[C@H](CO)[C@@H](O)[C@H]2O)n1 [RBV, ribavirin, reference compound] | 42.7 |  |  |  |  |  |  | 4.19 ± 0.35 | 1.32 ± 0.6 |  |  | EC50 [12]: 4.02 ± 1.27 µM
7 | CC(=O)OCC1O[C@H](NC(=O)[C@]23CCC(C)(C)CC2C2=CCC4[C@@]5(C)CC[C@H](O)C(C)(C)C5CC[C@@]4(C)[C@]2(C)CC3)C(OC(C)=O)C(OC(C)=O)[C@@H]1OC(C)=O (stereo partly drawn) [Compound Y5, 3β-hydroxy-olean-12-en-28-oic acid-28-N-(2,3,4,6-tetra-O-acetyl-β-D-galactoside)] |  |  | > 100 |  | 9.0 | significant anti-influenza virus activity; also recorded: most significant anti-influenza virus activity | 7.41 ± 0.05 | 2.72 ± 0.35 | 2.8 ± 0.74 | various extent of inhibition effect | 81.7 | EC50 ([15]; strain not specified): < 2000 nM
8 | NC12CC3CC(CC(C3)C1)C2 [Amantadine, amantadine, reference compound] |  |  |  |  |  |  | 7.41 ± 0.21 | 8.58 ± 1.65 | > 83.2 |  |  | CC50 at 48 h [17]: > 200 µM

From patent publication US9920088B2, “Triterpene derivative and its anti-influenza use” (Peking University, priority 2012, dated 2018)
